The record followed here is PMC5438648, “Identifying the structure-activity relationship of leelamine necessary for inhibiting intracellular cholesterol transport” (Oncotarget, 2017).

Where two headings read alike, the source gives them in different places.

One assay relates to UACC 903 melanoma cells. Kind of assay: MTS cell viability assay, UACC 903 melanoma cells. The following applies: 72 hours treatment, read-out: Melanoma cell killing efficacy (IC50 values) UACC 903 (Melanoma cells). In kind it is cell-based, human. As for the experimental part:
(§1) Dr. Craig Myers, Penn State College of Medicine, Hershey, PA provided normal human fibroblast cell line FF2441. Mutant V600E-BRAF human melanoma cell line 1205 Lu was provided by Dr. Herlyn; Wistar Institute, Philadelphia, PA and UACC 903 was provided by Dr. Mark Nelson; University of Arizona, Tucson, AZ. Cell lines were maintained in a 37°C humidified 5% CO2 atmosphere incubator and periodically monitored for phenotypic, genotypic characteristics, and tumorigenic potential to validate and confirm cell line identity.
(§2) In brief, 5 × 10^3 cells per well in 100 μL of media were seeded and grown in a 96-well plate for 48 to 72 hours and treated with either DMSO vehicle control or 0.62 to 100 μmol/L of compounds for 72 hours. IC50 values for each compound in μmol/L for respective cell lines were measured from three independent experiments using GraphPad Prism version 4.01 (GraphPad Software, La Jolla, CA). In addition, recovery and viability assessment was also measured with these compounds co-treated simultaneously with 10 nmol/L of bafilomycin A1 (BafA1) or 1 mMol/L β-cyclodextrin and the viability was measured using the MTS assay after 24 hours.
A general note: Formazan colour is commonly taken as a measure of viable cells.

Another assay deals with 1205 Lu melanoma cells. Put plainly: MTS cell viability assay, 1205 Lu melanoma cells. Conditions: 72 hours treatment, read-out: Melanoma cell killing efficacy (IC50 values) 1205 Lu (Melanoma cells). In kind it is cell-based, human. As for the experimental part: as §1, §2
Assay [1] concerns normal human fibroblast cell line FF2441. Kind of assay: MTS cell viability assay, normal fibroblasts. In kind it is cell-based. Conditions: 72 hours treatment, read-out: Melanoma cell killing efficacy (IC50 values) FF2441 (Normal Cells). As for the experimental part: as §1, §2
The next assay has as its system UACC 903 cells. Put plainly: Endocytosis: Alexa Fluor 488 transferrin uptake. In kind it is cell-based, human. The following applies: UACC 903, 2 hours treatment. As for the experimental part:
The endocytotic capacity of the cells was measured as described in Kuzu et al. 2014 [14]. Briefly, UACC 903 cells were seeded into chamber slides and treated with the particular agents for 2 hours. Next, Alexa Flor 488 tagged transferrin protein was added at a final concentration of 5 μg/mL and incubated for 30 minutes. Cells were then fixed on the slide with 4% paraformaldehyde and analyzed by fluorescence microscopy as described previously. Measurement of compounds effects on lysosomotropism was assessed through the appearance of cellular vacuolization of UACC 903 cells growing at 70 to 80% confluency on 100 mm culture dishes compared to controls. For some experimental conditions cells were co-treated with 10 nmol/L of BafA1 for 3 hours. Light microscopic images were used to assess cellular vacuolization.

Assay [2] relates to UACC 903 melanoma cell line. Kind of assay: Western blot of signaling pathways (PI3K/AKT, STAT3, MAPK; pERK1/2). In kind it is cell-based, human. Conditions: active 3-5 μmol/L, inactive 30-50 μmol/L, 24 hours. The text has this:
(§3) Cell lysates were harvested and processed as described in refs [14, 29, 31, 34]. […] Protein lysates were collected for Western blotting analysis. Blots were probed with antibodies according to each supplier's recommendations: antibodies to IGF-1R, total AKT, phosphor AKT (Ser473), total PRAS40, phospho-PRAS40 (Thr246), total ERK1/2, phospho-ERK1/2 (Thr202/Tyr 204), total CDK2, phospho-CDK2 (Thr160), p62, LC3B, total STAT, phospho-STAT3 (Tyr705), caspase 3 and cleaved PARP from Cell Signaling Technology (Danvers, MA); cyclin D1, α-enolase and secondary antibodies conjugated with horseradish peroxidase from Santa Cruz Biotechnology (Santa Cruz, CA). Immunoblots were developed using the enhanced chemiluminescence (ECL) detection system (Thermo Fisher Scientific, Rockford, IL).

The next assay deals with melanoma cells. Kind of assay: Autophagic flux: Western blot of p62 and LC3B. In kind it is cell-based, human. The following applies: Western blotting, 24 hours.
Description: as §3
(In general: Immunoblotting shows a protein as a band on a membrane.)

On to “[(1R, 4aR)-1,4a-dimethyl-7-(propan-2-yl)-1, 2, 3, 4, 4a, 4b, 5, 6, 7,10a-decahydrophenanthren-1-yl] methanol [2b]”, for which the IC50 in the assay on UACC 903 melanoma cells stood at 52.6 ± 1.4 µM; in the assay with 1205 Lu melanoma cells it was 60.3 ± 1.6 µM.
Regarding `CC(C)c1ccc2c(c1)CCC1[C@](C)(CNC(c3ccccc3)(c3ccccc3)c3ccccc3)CCC[C@]21C` (stereo partly drawn) [5f, {[(1R, 4aS)-1,4a-dimetyl-7-(propan-2-yl)-1,2,3,4,4a, 9, 10, 10a-octahydrophenanthren-1-yl]methyl} (triphenylmethyl) amine], the IC50 with UACC 903 melanoma cells (Homo sapiens, UACC-903, 72 h) was more than 100 µM; with 1205 Lu melanoma cells (Homo sapiens, 1205Lu, 72 h), more than 100 µM; in assay [1], more than 100 µM.
In the case of `CC(C)C1=CC2=CC[C@@H]3[C@](C)(CCC[C@@]3(C)C(=O)O)[C@H]2CC1` [Abietic acid, reference compound], the IC50 is more than 100 µM with UACC 903 melanoma cells (Homo sapiens, UACC-903, 72 h); more than 100 µM in the assay on 1205 Lu melanoma cells (Homo sapiens, 1205Lu, 72 h); more than 100 µM in assay [1]. In addition, the “cellular endocytosis (Alexa Fluor conjugated transferrin uptake)” value in the assay with UACC 903 cells was “did not occur”. Also, the “effect on PI3K/AKT, STAT3 and MAPK signaling pathways” value (from here on “effect on PI3K/AKT”) in assay [2] is “did not affect these pathways”.
Regarding `CC(=O)NC[C@]1(C)CCC[C@]2(C)c3ccc(C(C)C)cc3CCC12` (stereo partly drawn) [5c, N-{[(1R, 4aS)-1,4a-dimethyl-7-(propan-2-yl)-1,2,3,4,4a, 9, 10, 10a-octahydrophenanthren-1-yl]methyl} acetamide], the IC50 was 89.4 ± 3.3 µM in the assay with UACC 903 melanoma cells (Homo sapiens, UACC-903, 72 h); more than 100 µM in the assay with 1205 Lu melanoma cells (Homo sapiens, 1205Lu, 72 h); more than 100 µM in assay [1]. Further, the “effect on PI3K/AKT” value in assay [2] was “did not affect these pathways”.
As to `CC(C)c1ccc2c(c1)CCC1[C@](C)(CNC(=O)C(Br)(Br)Br)CCC[C@]21C` (stereo partly drawn) [5b, N-{[(1R, 4aS)-1,4a-dimethyl-7-(propan-2-yl)-1,2,3,4,4a, 9, 10, 10a-octahydrophenanthren-1-yl]methyl}-2,2,2-tribromoacetamide], the IC50 came out at 1 µM in the assay on UACC 903 melanoma cells (Homo sapiens, UACC-903, 72 h); 1.8 µM in the assay on 1205 Lu melanoma cells (Homo sapiens, 1205Lu, 72 h); 4.1 ± 0.2 µM in assay [1].
`CCN(CC)C[C@]1(C)CCC[C@]2(C)C3CCC(C(C)C)=CC3=CCC12` (stereo partly drawn) [4c, N-ethyl-N-(((1R, 4aR)-7-isopropyl-1,4a-dimethyl-1,2,3,4,4a, 4b,5,6,10,10a-decahydrophenanthren-1-yl)methyl) ethanamine]: the IC50 is 24.4 ± 1.4 µM in the assay on UACC 903 melanoma cells (Homo sapiens, UACC-903, 72 h); 24.3 ± 2.5 µM in the assay with 1205 Lu melanoma cells (Homo sapiens, 1205Lu, 72 h); more than 100 µM in assay [1].
On to `CNC(=O)[C@]1(C)CCC[C@]2(C)C3CCC(C(C)C)=CC3=CCC21` (stereo partly drawn) [3b, (1R, 4aR)-N, 1,4a-trimethyl-7-(propan-2-yl)-1,2,3,4,4a, 4b, 5,6, 10, 10a-decahydrophenanthrene-1-carboxamide], for which the IC50 is more than 100 µM in the assay with UACC 903 melanoma cells (Homo sapiens, UACC-903, 72 h); more than 100 µM in the assay with 1205 Lu melanoma cells (Homo sapiens, 1205Lu, 72 h); more than 100 µM in assay [1].
With `CNC[C@]1(C)CCC[C@]2(C)C3CCC(C(C)C)=CC3=CCC12` (stereo partly drawn) [4b, {[(1R, 4aR)-1,4a-dimethyl-7-(propan-2-yl)-1,2,3,4,4a, 4b, 5,6,10,10a-decahydrophenanthren-1-yl]methyl}(methyl) amine], the IC50 came to 2.3 µM with UACC 903 melanoma cells (Homo sapiens, UACC-903, 72 h); 2.3 µM with 1205 Lu melanoma cells (Homo sapiens, 1205Lu, 72 h); 9.33 ± 1.2 µM in assay [1].
For the molecule `CC(C)c1ccc2c(c1)CCC1[C@](C)(CNC(=O)c3ccccc3)CCC[C@]21C` (stereo partly drawn) [5d, N-(((1R, 4aS)-7-isopropyl-1,4a-dimethyl-1,2,3,4,4a, 9, 10, 10a-octahydrophenanthren-1-yl)methyl) benzamide], the IC50 in the assay on UACC 903 melanoma cells (Homo sapiens, UACC-903, 72 h) is more than 100 µM; in the assay on 1205 Lu melanoma cells (Homo sapiens, 1205Lu, 72 h) it was more than 100 µM; in assay [1], more than 100 µM.
On to `CC(C)c1ccc2c(c1)CCC1[C@](C)(CNCc3ccccc3)CCC[C@]21C` (stereo partly drawn) [5e, N-benzyl-1-((1R, 4aS)-7-isopropyl-1,4a-dimethyl-1,2,3,4,4a, 9, 10, 10a-octahydrophenanthren-1-yl) methanamine], for which the IC50 in the assay on UACC 903 melanoma cells (Homo sapiens, UACC-903, 72 h) stood at 6 µM; in the assay with 1205 Lu melanoma cells, 7.05 ± 0.7 µM; with 1205 Lu melanoma cells (Homo sapiens, 1205Lu, 72 h), 7 µM; in assay [1], 3.13 ± 0.4 µM.
For `CCN(CC)C(=O)[C@]1(C)CCC[C@]2(C)C3CCC(C(C)C)=CC3=CCC21` (stereo partly drawn) [3c, (1R, 4aR)-N, N-diethyl-1,4a-dimethyl-7-(propan-2-yl)-1,2,3,4,4a, 4b, 5,6, 10, 10a-decahydrophenanthrene-1-carboxamide], the IC50 in the assay with UACC 903 melanoma cells (Homo sapiens, UACC-903, 72 h) was more than 100 µM; in the assay with 1205 Lu melanoma cells (Homo sapiens, 1205Lu, 72 h), more than 100 µM; in assay [1] it was more than 100 µM.
With `CC(C)C1=CC2=CCC3[C@](C)(CCC[C@@]3(C)C(N)=O)C2CC1` (stereo partly drawn) [3a, (1R, 4aR)-7-isopropyl-1,4a-dimethyl-1,2,3,4,4a,4b,5,6,10,10a-decahydrophenanthrene-1-carboxamide], the IC50 was 70.1 ± 1.8 µM with UACC 903 melanoma cells (Homo sapiens, UACC-903, 72 h); 81 ± 2.1 µM with 1205 Lu melanoma cells (Homo sapiens, 1205Lu, 72 h); more than 100 µM in assay [1].
`CC(C)c1ccc2c(c1)CCC1[C@](C)(CNC(=O)C(F)(F)F)CCC[C@]21C` (stereo partly drawn) [5a, N-{[(1R, 4aS)-1,4a-dimethyl-7-(propan-2-yl)-1,2,3,4,4a, 9, 10, 10a-octahydrophenanthren-1-yl]methyl}-2,2,2-trifluoroacetamide]: the “autophagic flux (p62 and LC3B proteins)” value with melanoma cells was “dose dependently induced accumulation of p62 and LC3B proteins”. Further, the IC50 with UACC 903 melanoma cells (Homo sapiens, UACC-903, 72 h) came to 1.2 µM; with 1205 Lu melanoma cells (Homo sapiens, 1205Lu, 72 h), 2 µM; in assay [1] it was 5.17 ± 0.1 µM. The “effect on PI3K/AKT” value in assay [2] was “inhibited”.

The term IC50 denotes the midpoint of a concentration-inhibition curve.
